{"source": "patent US12612441B2", "about": "“Polypeptide and therapeutic uses thereof” (Vitalixir (Beijing) Co., Ltd, priority 2019, dated 2026)", "key": {"db/db mice [1]": {"system": "db/db mice", "experiment": "Blood glucose lowering in db/db mice (Example 8)", "format": "in vivo", "details": "db/db male mice, 30 nmol/kg subcutaneous single dose, blood glucose 0-10 hours, AUC, vs PBS control; FIG. 2", "procedure": "The feeding conditions of db/db mice were the same as described in Example 7. The db/db male mice (8 weeks old) were given one week to acclimate to the environmental conditions of the test facility. Baseline blood glucose and body weight were recorded for three days before the experiment (−3 day to −1 day). The mice were randomly grouped based on their three-day blood glucose and body weight, with 6 mice in each group. Mice were injected subcutaneously with PBS (5 ml/kg, control group) or the peptide compounds 31, 35, 38, 44 and 49 (30 nmol/kg) respectively at 10:00 in the morning. Blood was collected at 0 hour before drug administration, and 1, 2, 4, 6, 8, and 10 hours after administration, and blood glucose was measured using a OneTouch glucose meter (Johnson & Johnson) and test strips. Blood glucose curves were plotted with time as the abscissa and the blood glucose value at different time point as the ordinate, and the areas under the curve (AUC) were calculated."}, "DIO obese mice": {"system": "DIO obese mice", "experiment": "DIO obese mice 14-day body composition study (Example 14)", "format": "in vivo, C57BL/6 mice", "details": "1.5 nmole per animal s.c. once a day for 14 days; for lean mass: EchoMRI day 0 vs day 15, FIG. 13; for fat mass: EchoMRI day 0 vs day 15, vs PBS control, FIG. 13", "procedure": "The DIO obese mice experiment was conducted by Shanghai WuXi AppTec New Drug Development Co., Ltd. The animal feeding was the same as described in Example 13. The animals were adapted to grasping and subcutaneous injection for 1 week at 40 weeks of age. The body weight and food intake were measured for 3 consecutive days before the experiment, and the fasting blood glucose of the animals was measured 1 day before the experiment. The animals with abnormal blood glucose were removed, and the remaining animals were grouped according to the random blood glucose and body weight of the animals (using body weight as the main reference indicator), with 6 animals per group and an average weight of 47 grams. During the experiment, each group of the animals was injected subcutaneously with PBS, or 1.5 nmole of compound 35 or compound 40 per animal once a day, and the dosing period was 14 days. An EchoMRI body composition analyzer was used to measure the body fat content of the animals before and after the experiment."}, "db/db mice [2]": {"system": "db/db mice", "experiment": "Blood glucose lowering in db/db mice (Example 7)", "format": "in vivo", "details": "db/db male mice, 30 nmol/kg subcutaneous single dose, blood glucose 0-10 hours, AUC, vs PBS control; FIG. 1", "procedure": "db/db mice were housed in animal feeding rooms with strictly controlled environmental conditions. The temperature in the feeding room was maintained at 20-24° C. and the humidity was maintained at 40-70%. The temperature and humidity of the feeding room were monitored in real time by a temperature and humidity meter, and the temperature and humidity were recorded twice a day (once in the morning and once in the afternoon). The lighting in the animal feeding room was controlled by an electronic timing light-on system. The lights were turned on for 12 hours and turned off for 12 hours every day (on at 7:00 in the morning and off at 19:00 in the afternoon). During the experiment, the mice were individually housed in each cage, and toys were provided to the mice in each cage. During the experiment mice had free access to water. The db/db male mice (6 weeks old) were given one week to acclimate to the environmental conditions of the test facility. Baseline blood glucose and body weight were recorded for three days before the test (−3 day to −1 day). The mice were randomly grouped based on three-day blood glucose and body weight, with 6 mice in each group. The mice were injected subcutaneously with PBS (5 ml/kg, control group) or the peptide compounds 1, 2, 8, 16, 18, 19, 24, and 36 (30 nmol/kg) respectively at 10:00 am. Blood was collected at 0 hour before drug administration, and 1, 2, 4, 6, 8 and 10 hours after administration, and blood glucose was measured using a OneTouch glucose meter (Johnson & Johnson) and test strips. Blood glucose curves were plotted with time as the abscissa and the blood glucose value at different time point as the ordinate, the areas under the curve (AUC) were calculated, and the hypoglycemic effects and duration of time of the peptide compounds were compared."}}, "note": "Entries after “also recorded” stand apart in the source; their conditions may differ. Where no end group is shown, it is not given here. [ ]: non-standard residue; d: D form. Aib = CC(C)(N)C(=O)O", "data": [{"substance": "Y(aib)EGTFTSDLSIALEKEAVKLFIEWLLAGGPSSGAPPPK-NH2 (Y[Aib]EGTFTSDLSIALEKEAVKLFIEWLLAGGPSSGAPPPK-NH2; N-terminus assumed; SMILES CC[C@H](C)[C@H](NC(=O)[C@H](CO)NC(=O)[C@H](CC(C)C)NC(=O)[C@H](CC(=O)O)NC(=O)[C@H](CO)NC(=O)[C@@H](NC(=O)[C@H](Cc1ccccc1)NC(=O)[C@@H](NC(=O)CNC(=O)[C@H](CCC(=O)O)NC(=O)C(C)(C)NC(=O)[C@@H](N)Cc1ccc(O)cc1)[C@@H](C)O)[C@@H](C)O)C(=O)N[C@@H](C)C(=O)N[C@@H](CC(C)C)C(=O)N[C@@H](CCC(=O)O)C(=O)N[C@@H](CCCCN)C(=O)N[C@@H](CCC(=O)O)C(=O)N[C@@H](C)C(=O)N[C@H](C(=O)N[C@@H](CCCCN)C(=O)N[C@@H](CC(C)C)C(=O)N[C@@H](Cc1ccccc1)C(=O)N[C@H](C(=O)N[C@@H](CCC(=O)O)C(=O)N[C@@H](Cc1c[nH]c2ccccc12)C(=O)N[C@@H](CC(C)C)C(=O)N[C@@H](CC(C)C)C(=O)N[C@@H](C)C(=O)NCC(=O)NCC(=O)N1CCC[C@H]1C(=O)N[C@@H](CO)C(=O)N[C@@H](CO)C(=O)NCC(=O)N[C@@H](C)C(=O)N1CCC[C@H]1C(=O)N1CCC[C@H]1C(=O)N1CCC[C@H]1C(=O)N[C@@H](CCCCN)C(N)=O)[C@@H](C)CC)C(C)C) [Compound 44]", "values": [{"measurement": "blood glucose", "setting": "db/db mice [1]", "result": "significantly reduced the blood glucose"}]}, {"substance": "Y(aib)EGTFTSDLSIALEKEAVRLFIEWLLAGGPSSGAPPPK-NH2 (Y[Aib]EGTFTSDLSIALEKEAVRLFIEWLLAGGPSSGAPPPK-NH2; N-terminus assumed; SMILES CC[C@H](C)[C@H](NC(=O)[C@H](CO)NC(=O)[C@H](CC(C)C)NC(=O)[C@H](CC(=O)O)NC(=O)[C@H](CO)NC(=O)[C@@H](NC(=O)[C@H](Cc1ccccc1)NC(=O)[C@@H](NC(=O)CNC(=O)[C@H](CCC(=O)O)NC(=O)C(C)(C)NC(=O)[C@@H](N)Cc1ccc(O)cc1)[C@@H](C)O)[C@@H](C)O)C(=O)N[C@@H](C)C(=O)N[C@@H](CC(C)C)C(=O)N[C@@H](CCC(=O)O)C(=O)N[C@@H](CCCCN)C(=O)N[C@@H](CCC(=O)O)C(=O)N[C@@H](C)C(=O)N[C@H](C(=O)N[C@@H](CCCNC(=N)N)C(=O)N[C@@H](CC(C)C)C(=O)N[C@@H](Cc1ccccc1)C(=O)N[C@H](C(=O)N[C@@H](CCC(=O)O)C(=O)N[C@@H](Cc1c[nH]c2ccccc12)C(=O)N[C@@H](CC(C)C)C(=O)N[C@@H](CC(C)C)C(=O)N[C@@H](C)C(=O)NCC(=O)NCC(=O)N1CCC[C@H]1C(=O)N[C@@H](CO)C(=O)N[C@@H](CO)C(=O)NCC(=O)N[C@@H](C)C(=O)N1CCC[C@H]1C(=O)N1CCC[C@H]1C(=O)N1CCC[C@H]1C(=O)N[C@@H](CCCCN)C(N)=O)[C@@H](C)CC)C(C)C) [Compound 35]", "values": [{"measurement": "blood glucose", "setting": "db/db mice [1]", "result": "significantly reduced the blood glucose"}, {"measurement": "lean mass", "setting": "DIO obese mice", "result": "basically unchanged"}, {"measurement": "fat mass", "setting": "DIO obese mice", "result": "effectively reduced fat mass; also recorded: decreased markedly"}]}, {"substance": "Y(aib)EGTFTSDLSI(aib)LEKEAVRLFIEWLLAGGPSSGAPPPC-NH2 (YXEGTFTSDLSIXLEKEAVRLFIEWLLAGGPSSGAPPPC; Aib; C-terminal amide; MOD_RES (2)..(2) X=aminoisobutyric aicd; MOD_RES (13)..(13) X=aminoisobutyric aicd; MOD_RES (39)..(39) AMIDATION, C-termianl amidation) [Compound 38]", "values": [{"measurement": "blood glucose", "setting": "db/db mice [1]", "result": "significantly reduced the blood glucose"}]}, {"substance": "Y(aib)EGTFTSDLSIALEKEAVRLFIEWLLAGGPSSGAPPPS-NH2 (Y[Aib]EGTFTSDLSIALEKEAVRLFIEWLLAGGPSSGAPPPS-NH2; N-terminus assumed; SMILES CC[C@H](C)[C@H](NC(=O)[C@H](CO)NC(=O)[C@H](CC(C)C)NC(=O)[C@H](CC(=O)O)NC(=O)[C@H](CO)NC(=O)[C@@H](NC(=O)[C@H](Cc1ccccc1)NC(=O)[C@@H](NC(=O)CNC(=O)[C@H](CCC(=O)O)NC(=O)C(C)(C)NC(=O)[C@@H](N)Cc1ccc(O)cc1)[C@@H](C)O)[C@@H](C)O)C(=O)N[C@@H](C)C(=O)N[C@@H](CC(C)C)C(=O)N[C@@H](CCC(=O)O)C(=O)N[C@@H](CCCCN)C(=O)N[C@@H](CCC(=O)O)C(=O)N[C@@H](C)C(=O)N[C@H](C(=O)N[C@@H](CCCNC(=N)N)C(=O)N[C@@H](CC(C)C)C(=O)N[C@@H](Cc1ccccc1)C(=O)N[C@H](C(=O)N[C@@H](CCC(=O)O)C(=O)N[C@@H](Cc1c[nH]c2ccccc12)C(=O)N[C@@H](CC(C)C)C(=O)N[C@@H](CC(C)C)C(=O)N[C@@H](C)C(=O)NCC(=O)NCC(=O)N1CCC[C@H]1C(=O)N[C@@H](CO)C(=O)N[C@@H](CO)C(=O)NCC(=O)N[C@@H](C)C(=O)N1CCC[C@H]1C(=O)N1CCC[C@H]1C(=O)N1CCC[C@H]1C(=O)N[C@@H](CO)C(N)=O)[C@@H](C)CC)C(C)C) [Compound 31]", "values": [{"measurement": "blood glucose", "setting": "db/db mice [1]", "result": "significantly reduced the blood glucose"}]}, {"substance": "Y(aib)EGTFTSDLSIQLEKEAVRLFIEWLLAGGPSSGAPPPS-NH2 (Y[Aib]EGTFTSDLSIQLEKEAVRLFIEWLLAGGPSSGAPPPS-NH2; N-terminus assumed; SMILES CC[C@H](C)[C@H](NC(=O)[C@H](CO)NC(=O)[C@H](CC(C)C)NC(=O)[C@H](CC(=O)O)NC(=O)[C@H](CO)NC(=O)[C@@H](NC(=O)[C@H](Cc1ccccc1)NC(=O)[C@@H](NC(=O)CNC(=O)[C@H](CCC(=O)O)NC(=O)C(C)(C)NC(=O)[C@@H](N)Cc1ccc(O)cc1)[C@@H](C)O)[C@@H](C)O)C(=O)N[C@@H](CCC(N)=O)C(=O)N[C@@H](CC(C)C)C(=O)N[C@@H](CCC(=O)O)C(=O)N[C@@H](CCCCN)C(=O)N[C@@H](CCC(=O)O)C(=O)N[C@@H](C)C(=O)N[C@H](C(=O)N[C@@H](CCCNC(=N)N)C(=O)N[C@@H](CC(C)C)C(=O)N[C@@H](Cc1ccccc1)C(=O)N[C@H](C(=O)N[C@@H](CCC(=O)O)C(=O)N[C@@H](Cc1c[nH]c2ccccc12)C(=O)N[C@@H](CC(C)C)C(=O)N[C@@H](CC(C)C)C(=O)N[C@@H](C)C(=O)NCC(=O)NCC(=O)N1CCC[C@H]1C(=O)N[C@@H](CO)C(=O)N[C@@H](CO)C(=O)NCC(=O)N[C@@H](C)C(=O)N1CCC[C@H]1C(=O)N1CCC[C@H]1C(=O)N1CCC[C@H]1C(=O)N[C@@H](CO)C(N)=O)[C@@H](C)CC)C(C)C) [Compound 19]", "values": [{"measurement": "blood glucose", "setting": "db/db mice [2]", "result": "significantly reduce blood glucose"}]}, {"substance": "Y(aib)EGTFTSDLSI(aib)LEKEAVRLFIEWLLAGGPSSGAPPPK-NH2 (YXEGTFTSDLSIXLEKEAVRLFIEWLLAGGPSSGAPPPK; Aib; C-terminal amide; MOD_RES (2)..(2) X=aminoisobutyric aicd; MOD_RES (13)..(13) X=aminoisobutyric aicd; MOD_RES (39)..(39) AMIDATION, C-termianl amidation) [Compound 40]", "values": [{"measurement": "lean mass", "setting": "DIO obese mice", "result": "basically unchanged"}, {"measurement": "fat mass", "setting": "DIO obese mice", "result": "effectively reduced fat mass; also recorded: decreased markedly"}]}, {"substance": "Y(aib)EGTFTSDLSI(aib)LEKEAVKLFIEWLLAGGPSSGAPPPK-NH2 (YXEGTFTSDLSIXLEKEAVKLFIEWLLAGGPSSGAPPPK; Aib; C-terminal amide; …ON (2)..(2) X=aminoisobutyric aicd; …ON (13)..(13) X=aminoisobutyric aicd; …ON (39)..(39) AMIDATION, C-termianl amidation) [Compound 49]", "values": [{"measurement": "blood glucose", "setting": "db/db mice [1]", "result": "significantly reduced the blood glucose"}]}]}
